Results as given in patent US20260008787A1, “FUSED RING KRAS INHIBITORS FOR TREATING DISEASE” (BLOSSOMHILL THERAPEUTICS, INC., priority 2022, published 2026).

Legend:
Format in all cases: cell-based
Conditions in all cases: 384-well, CellTiter-Glo 2.0
[1] = test system: AGS (G12D); assay: Cell proliferation assay (CellTiter-Glo, 72 hours), AGS
Method: (§1) Two thousand KRAS mutant cells per well were seeded in 384-well white plate and then treated with indicated compounds for 72 hours at 37° C. and 5% CO2. Cell proliferation was measured using CellTiter-Glo 2.0 luciferase-based ATP detection assay (Promega, Madison, WI) following the manufacturer's protocol. IC50 values were determined using Prism software (GraphPad Software, San Diego, CA).

[2] = test system: SW620 (KRAS G12V); assay: Cell proliferation assay (CellTiter-Glo, 72 hours), SW620
Method: as §1

[3] = test system: GP2D (KRAS G12D); assay: Cell proliferation assay (CellTiter-Glo, 72 hours), GP2D
Method: as §1

Compound | IC50 ([1]; 72 h) | IC50 ([2]; Homo sapiens, SW-620, 72 h) | IC50 ([3]; GP2d, 72 h) | IC50 [1] | IC50 [2] | IC50 [3]
C#Cc1c(F)ccc2cc(O)cc(-c3nc4c5c(nc(OC[C@@]67CCCN6C[C@H](F)C7)nc5c3F)N(C)[C@@H](C3CC3)CO4)c12 [Example 32, 4-[(9S)-9-cyclopropyl-4-fluoro-2-{[(2R,7aS)-2-fluorotetrahydro-1H-pyrrolizin-7a(5H)-yl]methoxy}-10-methyl-9,10-dihydro-8H-7-oxa-1,3,6,10-tetraazacyclohepta[1,2,3-de]naphthalen-5-yl]-5-ethynyl-6-fluoronaphthalen-2-ol] | 623 nM | 693 nM | 293 nM |  |  | 
CCc1c(F)ccc2cc(O)cc(-c3nc4c5c(nc(OC[C@@]67CCCN6C[C@H](F)C7)nc5c3F)N[C@@H](C3CC3)CO4)c12 [Example 33, 4-[(9S)-9-cyclopropyl-4-fluoro-2-{[(2R,7aS)-2-fluorotetrahydro-1H-pyrrolizin-7a(5H)-yl]methoxy}-9,10-dihydro-8H-7-oxa-1,3,6,10-tetraazacyclohepta[1,2,3-de]naphthalen-5-yl]-5-ethyl-6-fluoronaphthalen-2-ol] | 2840 nM | 1530 nM | 962 nM |  |  | 
C#Cc1c(F)ccc2cc(O)cc(-c3nc4c5c(nc(OC[C@@]67CCCN6C[C@H](F)C7)nc5c3F)N[C@@H](C3CCC3)CO4)c12 [Example 35, 4-[(9S)-9-cyclobutyl-4-fluoro-2-{[(2R,7aS)-2-fluorotetrahydro-1H-pyrrolizin-7a(5H)-yl]methoxy}-9,10-dihydro-8H-7-oxa-1,3,6,10-tetraazacyclohepta[1,2,3-de]naphthalen-5-yl]-5-ethynyl-6-fluoronaphthalen-2-ol] | > 3000 nM | > 3000 nM | > 3000 nM |  |  | 
C#Cc1c(F)ccc2cc(O)cc(-c3nc4c5c(nc(OC[C@@]67CCCN6C[C@H](F)C7)nc5c3F)N[C@@H](CCOC)CO4)c12 [Example 48, 5-ethynyl-6-fluoro-4-[(9S)-4-fluoro-2-{[(2R,7aS)-2-fluorotetrahydro-1H-pyrrolizin-7a(5H)-yl]methoxy}-9-(2-methoxyethyl)-9,10-dihydro-8H-7-oxa-1,3,6,10-tetraazacyclohepta[1,2,3-de]naphthalen-5-yl]naphthalen-2-ol] | > 3000 nM | > 3000 nM | 2200 nM |  |  | 
C#Cc1c(F)ccc2cc(O)cc(-c3nc4c5c(nc(OC[C@@]67CCCN6C[C@H](F)C7)nc5c3F)N3CCOC[C@H]3CO4)c12 [Example 58, 5-ethynyl-6-fluoro-4-[(8aS)-4-fluoro-2-{[(2R,7aS)-2-fluorotetrahydro-1H-pyrrolizin-7a(5H)-yl]methoxy}-8a,9,11,12-tetrahydro-8H-7,10-dioxa-1,3,6,12a-tetraazabenzo[4,5]cyclohepta[1,2,3-de]naphthalen-5-yl]naphthalen-2-ol] | 59.4 nM | 43.1 nM | 36.7 nM |  |  | 
C#Cc1c(F)ccc2cc(O)cc(-c3nc4c5c(nc(OC[C@@]67CCCN6C/C(=C\F)C7)nc5c3F)N3CCCC[C@H]3CO4)c12 [Example 76, 5-ethynyl-6-fluoro-4-[(8aS)-4-fluoro-2-{[(2Z,7aS)-2-(fluoromethylidene)tetrahydro-1H-pyrrolizin-7a(5H)-yl]methoxy}-8,8a,9,10,11,12-hexahydro-7-oxa-1,3,6,12a-tetraazabenzo[4,5]cyclohepta[1,2,3-de]naphthalen-5-yl]naphthalen-2-ol] |  |  |  | 12.3 nM | 11.6 nM | 3.35 nM
C#Cc1c(F)ccc2cc(O)cc(-c3nc4c5c(nc(OC[C@@]67CCC[N+]6(C)C[C@H](F)C7)nc5c3F)N[C@@H](C)CO4)c12 (stereo partly drawn) [Example 77, (2R,7aS)-7a-({[(9S)-5-(8-ethynyl-7-fluoro-3-hydroxynaphthalen-1-yl)-4-fluoro-9-methyl-9,10-dihydro-8H-7-oxa-1,3,6,10-tetraazacyclohepta[1,2,3-de]naphthalen-2-yl]oxy}methyl)-2-fluoro-4-methylhexahydro-1H-pyrrolizin-4-ium] | > 3000 nM | > 3000 nM | 1350 nM |  |  | 
C#Cc1c(F)ccc2cc(O)cc(-c3nc4c5c(nc(OC[C@@]67CCCN6C[C@H](F)C7)nc5c3F)N(Cc3ccccc3)[C@@H](CO)CO4)c12 [Example 80, 4-[(9S)-10-benzyl-4-fluoro-2-{[(2R,7aS)-2-fluorotetrahydro-1H-pyrrolizin-7a(5H)-yl]methoxy}-9-(hydroxymethyl)-9,10-dihydro-8H-7-oxa-1,3,6,10-tetraazacyclohepta[1,2,3-de]naphthalen-5-yl]-5-ethynyl-6-fluoronaphthalen-2-ol] | > 3000 nM | > 3000 nM | > 3000 nM |  |  | 
C#Cc1c(F)ccc2cc(O)cc(-c3nc4c5c(nc(OC[C@@]67CCCN6C[C@H](F)C7)nc5c3F)N3C[C@H](O)CC[C@@H]3CO4)c12 [Example 87, (8aR,11R)-5-(8-ethynyl-7-fluoro-3-hydroxynaphthalen-1-yl)-4-fluoro-2-{[(2R,7aS)-2-fluorotetrahydro-1H-pyrrolizin-7a(5H)-yl]methoxy}-8,8a,9,10,11,12-hexahydro-7-oxa-1,3,6,12a-tetraazabenzo[4,5]cyclohepta[1,2,3-de]naphthalen-11-ol] | 132 nM | 686 nM | 64.5 nM |  |  | 
C#Cc1c(F)ccc2cc(O)cc(-c3nc4c5c(nc(OC[C@@]67CCCN6C[C@H](F)C7)nc5c3F)N[C@@H](CC)CO4)c12 [Example 90, 4-[(9S)-9-ethyl-4-fluoro-2-{[(2R,7aS)-2-fluorotetrahydro-1H-pyrrolizin-7a(5H)-yl]methoxy}-9,10-dihydro-8H-7-oxa-1,3,6,10-tetraazacyclohepta[1,2,3-de]naphthalen-5-yl]-5-ethynyl-6-fluoronaphthalen-2-ol] | 754 nM | 1950 nM | 189 nM |  |  | 

More lines, main results first:

IC50 ([1]; 72 h) | IC50 ([2]; Homo sapiens, SW-620, 72 h) | Compound | IC50 ([3]; GP2d, 72 h) | IC50 [1] | IC50 [2] | IC50 [3]
> 3000 nM | > 3000 nM | C#Cc1c(F)ccc2cc(O)cc(-c3nc4c5c(nc(OC[C@@]67CCCN6C[C@H](F)C7)nc5c3F)N[C@@H](C3CC3)CO4)c12 [Example 31, 4-[(9S)-9-cyclopropyl-4-fluoro-2-{[(2R,7aS)-2-fluorotetrahydro-1H-pyrrolizin-7a(5H)-yl]methoxy}-9,10-dihydro-8H-7-oxa-1,3,6,10-tetraazacyclohepta[1,2,3-de]naphthalen-5-yl]-5-ethynyl-6-fluoronaphthalen-2-ol] | 1880 nM |  |  | 
43.1 nM | 42 nM | CCc1c(F)ccc2cc(O)cc(-c3nc4c5c(nc(OC[C@@]67CCCN6C/C(=C\F)C7)nc5c3F)N3CCCC[C@H]3CO4)c12 [Example 41, 5-ethyl-6-fluoro-4-[(8aS)-4-fluoro-2-{[(2Z,7aS)-2-(fluoromethylidene)tetrahydro-1H-pyrrolizin-7a(5H)-yl]methoxy}-8,8a,9,10,11,12-hexahydro-7-oxa-1,3,6,12a-tetraazabenzo[4,5]cyclohepta[1,2,3-de]naphthalen-5-yl]naphthalen-2-ol] | 20.7 nM |  |  | 
789 nM | > 3000 nM | C#Cc1c(F)ccc2cc(O)cc(-c3nc4c5c(nc(OC[C@@]67CCCN6C[C@H](F)C7)nc5c3F)N[C@@H](C(C)C)CO4)c12 [Example 47, 5-ethynyl-6-fluoro-4-[(9S)-4-fluoro-2-{[(2R,7aS)-2-fluorotetrahydro-1H-pyrrolizin-7a(5H)-yl]methoxy}-9-(propan-2-yl)-9,10-dihydro-8H-7-oxa-1,3,6,10-tetraazacyclohepta[1,2,3-de]naphthalen-5-yl]naphthalen-2-ol] | ≥ 6000 nM |  |  | 
> 3000 nM | 2270 nM | C#Cc1c(F)ccc2cc(O)cc(-c3nc4c5c(nc(OC[C@@]67CCCN6C[C@H](F)C7)nc5c3F)N(C)[C@@H](C(C)C)CO4)c12 [Example 51, 5-ethynyl-6-fluoro-4-[(9S)-4-fluoro-2-{[(2R,7aS)-2-fluorotetrahydro-1H-pyrrolizin-7a(5H)-yl]methoxy}-10-methyl-9-(propan-2-yl)-9,10-dihydro-8H-7-oxa-1,3,6,10-tetraazacyclohepta[1,2,3-de]naphthalen-5-yl]naphthalen-2-ol] | 216 nM |  |  | 
5.14 nM | 3.51 nM | C#Cc1c(F)ccc2cc(O)cc(-c3nc4c5c(nc(OC[C@@]67CCCN6C[C@H](F)C7)nc5c3F)N(C(C)C)[C@@H](C)CO4)c12 [Example 56, 5-ethynyl-6-fluoro-4-[(9S)-4-fluoro-2-{1[(2R,7aS)-2-fluorotetrahydro-1H-pyrrolizin-7a(5H)-yl]methoxy}-9-methyl-10-(propan-2-yl)-9,10-dihydro-8H-7-oxa-1,3,6,10-tetraazacyclohepta[1,2,3-de]naphthalen-5-yl]naphthalen-2-ol] | 2.45 nM |  |  | 
> 3000 nM | > 3000 nM | C#Cc1c(F)ccc2cc(O)cc(-c3nc4c5c(nc(OC[C@@]67CCCN6C[C@H](F)C7)nc5c3F)N(Cc3ccccc3)[C@H](CO)CO4)c12 [Example 81, 4-[(9R)-10-benzyl-4-fluoro-2-{[(2R,7aS)-2-fluorotetrahydro-1H-pyrrolizin-7a(5H)-yl]methoxy}-9-(hydroxymethyl)-9,10-dihydro-8H-7-oxa-1,3,6,10-tetraazacyclohepta[1,2,3-de]naphthalen-5-yl]-5-ethynyl-6-fluoronaphthalen-2-ol] | > 3000 nM |  |  | 
28.3 nM | 105 nM | C#Cc1c(F)ccc2cc(O)cc(-c3nc4c5c(nc(OC[C@@]67CCCN6C[C@H](F)C7)nc5c3F)N3C[C@@H](O)CC[C@H]3CO4)c12 [Example 86, (8aS,11S)-5-(8-ethynyl-7-fluoro-3-hydroxynaphthalen-1-yl)-4-fluoro-2-{[(2R,7aS)-2-fluorotetrahydro-1H-pyrrolizin-7a(5H)-yl]methoxy}-8,8a,9,10,11,12-hexahydro-7-oxa-1,3,6,12a-tetraazabenzo[4,5]cyclohepta[1,2,3-de]naphthalen-11-7ol] | 9.1 nM |  |  | 
